# Reference: ChEMBL document CHEMBL1275485, “The antimalarial trioxaquine DU1301 alkylates heme in malaria-infected mice” (Antimicrob Agents Chemother, 2008)
# Activity calls are given as the source filed them. The calls are words filed in the database; no cut-off is given here.
# Tests used:
# Kidney = experiment: Induction of heme alkylation in Plasmodium vinckei petteri-infected Swiss albino mice (Mus musculus) kidney assessed as heme-drug adduct at 100 mg/kg, perorally administered as single dose measured by liquid chromatography-mass spectrometry method; format: functional, organism-based; parameters: dose 100 mg/kg
# Spleen = experiment: Induction of heme alkylation in Plasmodium vinckei petteri-infected Swiss albino mice (Mus musculus) spleen assessed as covalent heme-drug adduct formation at 100 mg/kg, perorally administered as single dose measured by liquid chromatography-mass spectrometry method; format: functional, organism-based; parameters: dose 100 mg/kg
smiles,measurement,setting,value
CC(C)C1=C[C@H]2OC3(CCC(NCCNc4ccnc5cc(Cl)ccc45)CC3)OO[C@@]2(C)CC1 (some centres not stated),Activity,Kidney,inactive
same,Activity,Spleen,Active
